The source of these data is PMC6154583, “Optimized 4,5-Diarylimidazoles as Potent/Selective Inhibitors of Protein Kinase CK1δ and Their Structural Relation to p38α MAPK” (Molecules : A Journal of Synthetic Chemistry and Natural …, 2017).

Data set [1] deals with CK1δ (Homo sapiens, UniProt P48730). More on the design: method as in PMID 19591487. To be noted: CK1δ versus CK1ε; cited from earlier work.
Data set [2] has as its system CK1ε. Details: method as in PMID 19591487. To be noted: cited from earlier work.
Data set [3] is described as follows: Chemical stability in DMSO solution by HPLC analysis. To be noted: within a short period of time after preparing a solution in DMSO. In kind it is physicochemical. An excerpt:
The binding modes described above are based on (E)-configured cinnamic moieties of 1 and 2, respectively. […] Accordingly, computational analysis assume these (Z)-stereoisomers to be less bioactive. Furthermore, the acrylamide Michael acceptor moiety of the cinnamic acid side chain was considered responsible for the observed chemical instability of 1 and 2 in solution. […] Consequently, our primary goal towards an optimized inhibitor was to gain chemical stability. Thus, having identified the cinnamic side chain to be responsible for the chemical instability issue we aimed towards stable side chains attached at the validated 2-aminopyridine core moiety. By these modifications we set out to explore the respective hydrophobic region II formerly occupied by the cinnamic acid moiety. At the same time, both potency and selectivity for CK1δ were taken into account. Therefore, in our systematic approach four structurally divergent series of inhibitors with variable side chains (Scheme 1) have been designed based on the following considerations.
They were stable in DMSO solution at room temperature without detectable degradation over a period of 72 h by HPLC analysis.

Data set [4] has as its system MiaPaCa-2 cells. Put plainly: MTT viability assay. To be noted: mean ± SD, n = 3. Format: cell-based, human. The protocol: (§1) The human pancreatic cancer cell lines Colo357 [61], Panc-1 [62], and MiaPaCa-2 [63] were grown in Dulbecco’s modified Eagle’s medium (DMEM). Panc89 [64] was grown in DMEM:RPMI-1640 medium in ratio 1:1. The human colon adenocarcinoma cell line HT-29 [65] was grown in McCoy’s 5A medium. All media were supplemented with 10% fetal calf serum (FCS), 100 units·mL^−1 penicillin, 100 µg∙mL^−1 streptomycin and 2 mM glutamine. All cells were grown at 37 °C in a humidified 5% carbon dioxide atmosphere.
(§2) In order to determine the cytotoxic effects of investigated inhibitors conventional MTT assay were used. 1 × 10^4 cells∙well^−1 were seeded in 96-well cell culture plates and cultivated for 24 h. Cell lines were exposed to increasing concentrations of the indicated inhibitor compounds, with untreated and DMSO-treated cells serving as control. After an incubation period of 48 h 10 µL of MTT solution (5 mg∙mL^−1 in PBS) were added and cells were incubated for 4 h. MTT-containing medium was carefully removed and 100 µL acidic isopropanol (0.04 N HCl in isopropanol) per well were added. For dissolution of formazan crystals plates were shaken for 30 min on an orbital shaker in the dark. Finally, dissolved crystals were measured spectrophotometrically at […]. All experiments were performed in triplicate with four technical replicates per assay. Results were normalized considering the mean optical density value of control wells as 100%. GraphPad Prism 6 (La Jolla, CA, USA) software was used to calculate EC50 values.
On the technique in general: Tetrazolium assays rely on reduction of a dye to a coloured formazan, in cell work by metabolically active cells.

The test system of data set [5] is Colo357 cells. Put plainly: MTT viability assay. In kind it is cell-based, human. To be noted: mean ± SD, n = 3. The protocol:
as §1, §2

In data set [6] the test system is Panc-1 cells. Description: MTT viability assay. In kind it is cell-based, human. To be noted: mean ± SD, n = 3. The protocol: as §1, §2
The test system of data set [7] is Panc89 cells. Put plainly: MTT viability assay. Format: cell-based, human. To be noted: 48 h incubation, mean ± SD, n = 3. The protocol:
as §1, §2

The test system of data set [8] is HT-29 cells. Description: MTT viability assay. To be noted: Homo sapiens, dilution series. In kind it is cell-based. The protocol: as §1
In order to determine the cytotoxic effects of investigated inhibitors conventional MTT assay were used. 1 × 10^4 cells∙well^−1 were seeded in 96-well cell culture plates and cultivated for 24 h. Cell lines were exposed to increasing concentrations of the indicated inhibitor compounds, with untreated and DMSO-treated cells serving as control. After an incubation period of 48 h 10 µL of MTT solution (5 mg∙mL^−1 in PBS) were added and cells were incubated for 4 h. […] Finally, dissolved crystals were measured spectrophotometrically at 570 nM. […]
Figure S1. (A) HT-29 cells were treated with compounds of series 1 at 20 µM concentration and cell viability was measured by MTT viability assay. […]
screening at 20 µM concentration. Cell viability was determined by MTT assay and the EC50 value was calculated using GraphPad Prism 6. […]

The subject of data set [9] is CK1α. To be noted: read-out: IC50 CK1α; cited from earlier work.
For data set [10], the system named is CK1δ/ε. To be noted: read-out: IC50 CK1δ/ε; cited from earlier work.
The mark [11] stands for this setting: Homo sapiens, MIA PaCa-2, 48 h incubation.
Where [12] appears, read: Homo sapiens, COLO357, 48 h incubation.
The mark [13] stands for this setting: Homo sapiens, PANC-1, 48 h incubation.

Chain of CK1δ (P48730 whole entry): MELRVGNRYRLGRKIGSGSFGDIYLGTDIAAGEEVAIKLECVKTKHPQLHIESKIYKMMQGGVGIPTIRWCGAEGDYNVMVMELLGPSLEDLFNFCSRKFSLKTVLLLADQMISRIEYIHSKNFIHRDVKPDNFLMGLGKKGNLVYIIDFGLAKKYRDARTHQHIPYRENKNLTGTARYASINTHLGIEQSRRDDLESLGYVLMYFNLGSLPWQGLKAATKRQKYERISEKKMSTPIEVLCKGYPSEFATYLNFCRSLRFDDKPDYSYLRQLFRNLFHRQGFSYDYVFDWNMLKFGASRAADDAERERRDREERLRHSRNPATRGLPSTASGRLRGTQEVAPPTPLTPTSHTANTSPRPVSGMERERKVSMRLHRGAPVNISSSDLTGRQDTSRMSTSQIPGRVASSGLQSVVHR

For the compound `COc1ccc(C=CC(=O)Nc2cc(-c3nc([S+](C)[O-])[nH]c3-c3ccc(F)cc3)ccn2)c(OC)c1` (stereo not drawn) [compound 2], the “discrimination of isoforms δ and ε” value in [1] is given as “at least 40 fold”. Moreover, the IC50 in data set [2] was 447 nM. Besides, in [3], the “chemical stability in DMSO solution (HPLC analysis)” value is listed as “increasing number of not identifiable degradation products”.
Turning to `COc1ccc(-c2cc(C(=O)Nc3cc(-c4nc([S+](C)[O-])[nH]c4-c4ccc(F)cc4)ccn3)n(C)c2)c(OC)c1` (stereo not drawn) [16c, 4-(2,4-Dimethoxyphenyl)-N-(4-(5-(4-fluorophenyl)-2-(methylsulfinyl)-1H-imidazol-4-yl)-pyridin-2-yl)-1-methyl-1H-pyrrol-2-carboxamide], the concentration for a half-maximal effect (EC50) in data set [4] (setting [11]) came to 7.7 ± 2.5 µM; in data set [5] (setting [12]), 16.7 ± 5.6 µM; in data set [6] (setting [13]), 10.2 ± 3.2 µM.
Take `COc1cccc(CCC(=O)Nc2cc(-c3nc(SC)[nH]c3-c3ccc(F)cc3)ccn2)c1OC` [11c, 3-(2,3-Dimethoxyphenyl)-N-(4-(5-(4-fluorophenyl)-2-(methylthio)-1H-imidazol-4-yl)-pyridin-2-yl)-propanamide]: the values for the 50% effective concentration (EC50) in data set [5] (setting [12]) and in data set [7] (Homo sapiens) were 1.9 ± 0.6 µM and 6.1 ± 3 µM, respectively.
As to `COc1ccc(-c2cc(C(=O)Nc3cc(-c4nc(SC)[nH]c4-c4ccc(F)cc4)ccn3)n(C)c2)c(OC)c1` [16a, 4-(2,4-Dimethoxyphenyl)-N-(4-(5-(4-fluorphenyl)-2-(methylthio)-1H-imidazol-4-yl)-pyridin-2-yl)-1-methyl-1H-pyrrole-2-carboxamide], the results for the EC50 in [4] (setting [11]) and in data set [6] (setting [13]) were 2.4 ± 0.7 µM and 5.1 ± 1.6 µM, respectively.
As for `CSc1nc(-c2ccnc(NC(=O)Nc3ccc(C)c(Cl)c3)c2)c(-c2ccc(F)cc2)[nH]1` [12e, 1-(3-Chloro-4-methylphenyl)-3-(4-(5-(4-fluorophenyl)-2-(methylthio)-1H-imidazol-4-yl)-pyridin-2-yl)-carbamide], the results for the EC50 in [5] (48 h incubation) and in data set [7] were 14.9 ± 2.6 µM and 7.5 ± 3 µM, respectively.
Take `COc1ccc(OC)c(NC(=O)Nc2cc(-c3nc(SC)[nH]c3-c3ccc(F)cc3)ccn2)c1` [12b, 1-(2,5-Dimethoxyphenyl)-3-(4-(5-(4-fluorophenyl)-2-(methylthio)-1H-imidazol-4-yl)-pyridin-2-yl)carbamide]: the values for the EC50 in data set [4] (48 h incubation), in data set [5] (48 h incubation) and in data set [6] (48 h incubation) were 11.6 ± 1.1 µM, 15.5 ± 1.6 µM and 15.2 ± 2.6 µM, respectively.
`CSc1nc(-c2ccnc(NCCc3c[nH]c4ccccc34)c2)c(-c2ccc(F)cc2)[nH]1` [10e, N-(2-(1H-Indol-3-yl)-ethyl)-4-(5-(4-fluorophenyl)-2-(methylthio)-1H-imidazol-4-yl)-pyridin-2-amine]: the response in [8] was half-maximal at 9.3 µM (EC50).
As for `COc1cc(OC)c(C=C2C(O)=Nc3ccccc32)c(OC)c1` [IC261], the IC50 in data set [9] is 10 µM; in data set [10], 1000 nM.
Consider `COc1cc(CCC(=O)Nc2cc(-c3nc(SC)[nH]c3-c3ccc(F)cc3)ccn2)cc(OC)c1OC` [11e, 3-(3,4,5-Trimethoxyphenyl)-N-(4-(5-(4-fluorophenyl)-2-(methylthio)-1H-imidazol-4-yl)-pyridin-2-yl)-propanamide], for which the concentration giving a half-maximal response (EC50) in data set [5] (setting [12]) was 4.5 ± 1.3 µM; in data set [7] (Homo sapiens), 8.3 ± 2.2 µM.
Regarding `COc1ccc(CCC(=O)Nc2cc(-c3nc(SC)[nH]c3-c3ccc(F)cc3)ccn2)cc1OC` [11d, 3-(3,4-Dimethoxyphenyl)-N-(4-(5-(4-fluorophenyl)-2-(methylthio)-1H-imidazol-4-yl)-pyridin-2-yl)-propanamide], the figures for the concentration for a half-maximal effect (EC50) in [5] (setting [12]) and in data set [7] (Homo sapiens) were 5.9 ± 2.4 µM and 7.8 ± 0.4 µM, respectively.
Regarding `COc1ccc(CCC(=O)Nc2cc(-c3nc(SC)[nH]c3-c3ccc(F)cc3)ccn2)c(OC)c1` [11a, 3-(2,4-Dimethoxyphenyl)-N-(4-(5-(4-fluorophenyl)-2-(methylthio)-1H-imidazol-4-yl)-pyridin-2-yl)propanamide], the EC50 stood at 4.9 ± 0.8 µM in data set [4] (setting [11]), 4.1 ± 1.7 µM in [5] (setting [12]), 7 ± 0.7 µM in [6] (setting [13]) and 2.5 ± 1 µM in data set [7] (Homo sapiens).
As for `COc1ccc(/C=C/C(=O)Nc2cc(-c3nc(SC)[nH]c3-c3ccc(F)cc3)ccn2)c(OC)c1` [compound 1], the IC50 in [2] was 73 nM. Also, the “chemical stability in DMSO solution (HPLC analysis)” value in data set [3] is “increasing number of not identifiable degradation products”.
As to `COc1ccc(NC(=O)Nc2cc(-c3nc(SC)[nH]c3-c3ccc(F)cc3)ccn2)c(OC)c1` [12a, 1-(2,4-Dimethoxyphenyl)-3-(4-(5-(4-fluorophenyl)-2-(methylthio)-1H-imidazol-4-yl)-pyridin-2-yl)carbamide], the 50% effective concentration (EC50) came out at 15.22 ± 0.04 µM in data set [4] (setting [11]), 17.4 ± 0.04 µM in data set [5] (setting [12]), 16.1 ± 5.6 µM in [6] (setting [13]) and 19.6 ± 3.8 µM in [7] (Homo sapiens).
Regarding `COc1ccc(OC)c(-c2cc(C(=O)Nc3cc(-c4nc(SC)[nH]c4-c4ccc(F)cc4)ccn3)n(C)c2)c1` [16b, 4-(2,5-Dimethoxyphenyl)-N-(4-(5-(4-fluorphenyl)-2-(methylthio)-1H-imidazol-4-yl)-pyridin-2-yl)-1-methyl-1H-pyrrole-2-carboxamide], the half-maximal effective concentration (EC50) in [4] (48 h incubation) is 2.3 ± 0.2 µM; in [5] (48 h incubation), 5.7 ± 2.2 µM; in data set [6] (48 h incubation), 5.4 ± 1.5 µM; in data set [7] it was 7.3 ± 1.9 µM.

What is called EC50 is the concentration at which the effect is half-maximal. A lower EC50 goes with higher potency in that assay.
